Experimental data as given in patent publication US4526989A, “1,4-Bis (substituted-amino)-5,8-dihydroxy-anthraquinones and leuco bases thereof” (priority 1979, dated 1985).

Key:
[1] = Storage behaviour of solid; type: physicochemical
[2] = system: lymphocytic leukemia P388; test: Lymphocytic leukemia P388 test (oral drug administration); type: in vivo, DBA/2 mice; settings: for T/C × 100: efficacy ≥125%
Protocol: The animals used are DBA/2 mice all of one sex, weighing a minimum of 17 g. and all within a 3 gram weight range. There are 5 or 6 animals per test group. The tumor transplant is by intraperitoneal injection of 0.1 ml. of dilute ascitic fluid containing 10^6 cells of lymphocytic leukemia P388. The test compounds are administered intraperitoneally on days one, 5 and 9 (relative to tumor inoculation) at various doses. The animals are weighed and survivors are recorded on a regular basis for 30 days. The median survival time and the ratio of survival time for treated (T)/control (C) animals are calculated. […] The results of this test with representative compounds of the present invention appear in Table I. The criterion for efficacy is T/C×100≥125%.
The procedure used is the same as for the previously described test for lymphocytic leukemia P388 except that the test compounds are administered orally at various doses rather than intraperitoneally. The criterion for efficacy is T/C×100≥125%.

[3] = system: lymphocytic leukemia P388; test: Lymphocytic leukemia P388 test (intraperitoneal administration); type: in vivo, DBA/2 mice; settings: days 1, 5 and 9
Outline: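 DBA/2 mice, single sex, 5-6 per group, inoculated i.p. with 10^6 P388 leukemia cells. Compounds given i.p. at various doses on days 1, 5 and 9; survival followed 30 days, reporting median survival time and treated/control (T/C) survival ratio.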

melanotic melanoma B16 = test: Melanotic Melanoma B16 test; type: in vivo, C57BC/6 mice
Outline: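 C57BC/6 mice (10 per group) were implanted i.p. with B16 melanoma homogenate, then dosed i.p. on days 1–9 at various doses.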

[4] = system: Ridgway Osteogenic Sarcoma; test: Ridgway Osteogenic Sarcoma; type: in vivo, AKD2 F1 /J mice; settings: for % Inhibition Tumor Growth / % Showing 50% Tumor Regression / No. Without Tumors/No. Survivors / Tumor: 7 days after therapy stopped; for Median Survival / T/C: 63 days after therapy stopped
Protocol: The animals used are AKD2 F1 /J mice, all of the same sex, weighing a minimim of 17 g. and all within a three-gram weight range. There are normally 8 animals per test group. The tumor is administered subcutaneously by trocar as five 2-mm. fragments per mouse. The test compounds are administered intraperitoneally every 4 days for a total of 6 inoculations beginning on day 15 (relative to tumor inoculation) at various doses. The animals are weighed and survivors are recorded on a regular basis for 90 days. The regression of tumors is recorded in all test animals.

In the case of `O=C1C2=C(NCCNCCNCCO)CCC(NCCNCCNCCO)=C2C(=O)c2c(O)ccc(O)c21` [Example 33, Leuco-1,4-bis[2-[2-(2-hydroxyethylamino)ethylamino]ethylamino]-5,8-dihydroxyanthraquinone], the “storage behaviour of solid” value ([1]; stored at 25° C.) is reported as “coalesces into a solid cake” and the “storage behaviour of solid” value ([1]; stored at -25° C.) is reported as “remains granular”.
For `CN(C)CCNc1ccc(NCCN(C)C)c2c1C(=O)c1c(O)ccc(O)c1C2=O` [1,4-Bis[(2-dimethylaminoethyl)amino]-5,8-dihydroxyanthraquinone], the “Median Survival Time” value ([2]; 3 mg./kg. oral) was 15.0 days, the “T/C × 100” value ([2]; 3 mg./kg. oral) was 130% and the “Median Survival Time” value ([2]; 6 mg./kg. oral) was 16.0 days. The “T/C × 100” value ([2]; 6 mg./kg. oral) was 139%, the “Median Survival Time” value ([2]; 12 mg./kg. oral) was 16.0 days and the “T/C × 100” value ([2]; 12 mg./kg. oral) was 139%. For the same compound, the “Median Survival Time” value ([3]; 3 mg./kg. i.p.) was 19.5 days, the “Median Survival Time” value ([3]; 6 mg./kg. i.p.) was 21.0 days and the “Median Survival Time” value ([3]; 12 mg./kg. i.p.) was 23.0 days. The “Median Survival Time” value ([3]; 25 mg./kg. i.p.) was 20.5 days, the “Median Survival Time” value ([3]; 50 mg./kg. i.p.) was 25.0 days and the response vs control in vivo at 3 mg/kg ([3]; Mus musculus, P388, ip, 3 mg./kg. i.p., efficacy ≥125%, read-out: T/C × 100) was 217%. It also gave a response vs control in vivo at 6 mg/kg ([3]; Mus musculus, P388, ip, 6 mg./kg. i.p., efficacy ≥125%, read-out: T/C × 100) of 233%, a response vs control in vivo at 12 mg/kg ([3]; Mus musculus, P388, ip, 12 mg./kg. i.p., efficacy ≥125%, read-out: T/C × 100) of 256% and a response vs control in vivo at 25 mg/kg ([3]; Mus musculus, P388, ip, 25 mg./kg. i.p., efficacy ≥125%, read-out: T/C × 100) of 228%. For the same compound, the response vs control in vivo at 50 mg/kg ([3]; Mus musculus, P388, ip, 50 mg./kg. i.p., efficacy ≥125%, read-out: T/C × 100) was 278%, the “Median Survival Time” value (melanotic melanoma B16; 3 mg./kg. i.p., days 1 through 9) was 25.5 days and the “Median Survival Time” value (melanotic melanoma B16; 6 mg./kg. i.p., days 1 through 9) was 27.0 days. For the same compound, the “Median Survival Time” value (melanotic melanoma B16; 12 mg./kg. i.p., days 1 through 9) was 28.5 days, the “Median Survival Time” value (melanotic melanoma B16; 25 mg./kg. i.p., days 1 through 9) was 24.5 days and the response vs control in vivo at 3 mg/kg (melanotic melanoma B16; Mus musculus, ip, read-out: T/C × 100) was 142%. It also gave a response vs control in vivo at 6 mg/kg (melanotic melanoma B16; Mus musculus, ip, 6 mg./kg. i.p., days 1 through 9, efficacy ≥125%, read-out: T/C × 100) of 150%, a response vs control in vivo at 12 mg/kg (melanotic melanoma B16; Mus musculus, ip, 12 mg./kg. i.p., days 1 through 9, efficacy ≥125%, read-out: T/C × 100) of 158% and a response vs control in vivo at 25 mg/kg (melanotic melanoma B16; Mus musculus, ip, 25 mg./kg. i.p., days 1 through 9, efficacy ≥125%, read-out: T/C × 100) of 136%. For the same compound, the “% Inhibition Tumor Growth” value ([4]; 6 mg./kg. i.p.) was 19%, the “% Showing 50% Tumor Regression” value ([4]; 6 mg./kg. i.p.) was 0% and the “No. Without Tumors/No. Survivors” value ([4]; 6 mg./kg. i.p.) was 0/6. The Tumor ([4]; 6 mg./kg. i.p.) was 960 (mm.) 2, the “Median Survival” value ([4]; 6 mg./kg. i.p.) was 57.5 days and the T/C ([4]; 6 mg./kg. i.p.) was 129%. The “% Inhibition Tumor Growth” value ([4]; 12 mg./kg. i.p.) was 61%, the “% Showing 50% Tumor Regression” value ([4]; 12 mg./kg. i.p.) was 0% and the “No. Without Tumors/No. Survivors” value ([4]; 12 mg./kg. i.p.) was 0/3. The Tumor ([4]; 12 mg./kg. i.p.) was 470 (mm.) 2, the “Median Survival” value ([4]; 12 mg./kg. i.p.) was 37 days and the T/C ([4]; 12 mg./kg. i.p.) was 83%. For the same compound, the “% Inhibition Tumor Growth” value ([4]; 25 mg./kg. i.p.) was 41%, the “% Showing 50% Tumor Regression” value ([4]; 25 mg./kg. i.p.) was 0% and the “No. Without Tumors/No. Survivors” value ([4]; 25 mg./kg. i.p.) was 0/8. For the same compound, the Tumor ([4]; 25 mg./kg. i.p.) was 653 (mm.) 2, the “Median Survival” value ([4]; 25 mg./kg. i.p.) was 78 days and the T/C ([4]; 25 mg./kg. i.p.) was 175%. For the same compound, the “% Inhibition Tumor Growth” value ([4]; 50 mg./kg. i.p.) was 78%, the “% Showing 50% Tumor Regression” value ([4]; 50 mg./kg. i.p.) was 25% and the “No. Without Tumors/No. Survivors” value ([4]; 50 mg./kg. i.p.) was 2/6. The Tumor ([4]; 50 mg./kg. i.p.) was 263 (mm.) 2, the “Median Survival” value ([4]; 50 mg./kg. i.p.) was 92.5 days and the T/C ([4]; 50 mg./kg. i.p.) was 208%. The “% Inhibition Tumor Growth” value ([4]; 100 mg./kg. i.p.) was 96%, the “% Showing 50% Tumor Regression” value ([4]; 100 mg./kg. i.p.) was 28% and the “No. Without Tumors/No. Survivors” value ([4]; 100 mg./kg. i.p.) was 2/5. For the same compound, the Tumor ([4]; 100 mg./kg. i.p.) was 52 (mm.) 2, the “Median Survival” value ([4]; 100 mg./kg. i.p.) was 48 days and the T/C ([4]; 100 mg./kg. i.p.) was 108%.
